# According to PubChem BioAssay AID1996:
# Conditions: buffer; pH 7.4; 200.0 µM
row,SMILES,solubility kinetic [µg/mL]
1,COc1cccc(N/C=C/C(=O)c2ccc(OC)c(OC)c2)c1,2.3
2,Cc1ccsc1-c1cc(C(=O)O)c2c(ccc3ccccc32)n1,> 47.9
3,O=C(NCCCn1ccnc1)c1ccc(-c2ccccc2)cc1,> 45.8
4,Cl.O=C(COc1ccc(Br)cc1)NCCN1CCCC1,51.8
5,COc1ccccc1N1CCN(CC(=O)NCc2ccc(Cl)cc2)CC1,> 56.1
6,COc1ccc(NC(=O)c2cc(S(=O)(=O)N3CCOCC3)ccc2C)cc1S(=O)(=O)N1CCOCC1,> 80.9
7,CC1=C(C(=O)Nc2cccc(C(=O)NC(C)C)c2)SCCO1,47.9
8,COc1ccccc1OCCn1c(=O)oc2ccc(C)cc21,4.2
9,COc1ccccc1CC(=O)N1CCOCC1,34.6
10,CC(=O)Cn1c(CN2CCCCC2)nc2ccccc2c1=O,> 44.9
11,Cc1cccnc1NC(=O)Cn1c(=O)oc2ccccc21,41.2
12,Cc1cccc(Cc2cnc(NC(=O)C3=NCCN3)s2)c1,7
13,COc1ccc(C2C(C#N)=C(N)Oc3cc(O)ccc32)cc1C (configuration not stated),31.5
14,Cc1ccc(C(C)C)c(OCCCCCN2CCOCC2)c1,12.8
15,COc1cc(/C=C/C(=O)OCC(=O)NC(=O)NCc2ccco2)ccc1OC(F)F,7.1
16,Cc1nn(CC(=O)NCCc2ccccc2)c(=O)c2cccn12,> 46.6
17,CC(=O)Nc1ccc(N/C=C/C(=O)c2ccccc2)cc1,4.1
18,O=C(Nc1ccccc1)Nc1ccc2c(c1)CCC2,0.4
19,O=C(COC(=O)c1ccc(O)cc1)NC1CCCCCC1,> 43.7
20,N#CC1(NC(=O)CN2C(=O)NC(Cc3c[nH]c4ccccc34)C2=O)CCCCC1 (configuration not stated),> 59
21,Cc1c(C(=O)Nc2cccnc2)oc2ccc(Br)cc12,< 0.4
22,Oc1ccc(F)c2cccnc12,5
23,CC(Sc1ccc(S(=O)(=O)N2CCCC2)cn1)C(N)=O (configuration not stated),> 47.3
24,Cc1ccc2nc(SCC(=O)NCc3cccs3)[nH]c2c1,> 47.6

row,SMILES,solubility kinetic [µg/mL]
1,COc1ccc(NC(=O)COC(=O)CC2CCCCC2)cc1,> 45.8
2,COc1ccc(CCNC(=O)c2cc(=O)[nH]c3ccccc23)cc1,1.9
3,Nc1ccccc1SCC(=O)Nc1nccs1,> 39.8
4,CCNc1nc(NCC)nc(NC(N)=S)n1,9
5,O=C(Nc1csc([N+](=O)[O-])c1)Nc1c(Cl)cccc1Cl,1.9
6,Cc1cccc(C(C)C)c1NC(=O)c1ccc(OCC2CCCO2)cc1 (configuration not stated),12.1
7,O=C(Nc1cccc([N+](=O)[O-])c1)N1CCCCCC1,37.5
8,CC(=O)CSc1nc(-c2ccccc2)c(-c2ccccc2)o1,3.1
9,CN(Cc1ccccc1)C(=O)COC(=O)c1ccc[nH]c1=O,> 45
10,Cc1ccc(S(=O)(=O)CC(=O)Nc2ccccn2)cc1,42.3
11,O=C(O)c1cccc2c1/C(=N/O)c1ccccc1-2,> 35.9
12,COc1cccc(C(=O)Nc2cccc(NC(=O)c3ccccc3Cl)c2)c1,7.4
13,NS(=O)(=O)c1ccc(NC(=O)CNC(=O)c2ccc3c(c2)OCO3)cc1,10
14,CCN(CC(=O)Nc1ccc2c(c1)OCCO2)S(=O)(=O)c1ccc(F)cc1,> 59.2
15,CC(=O)c1ccc(OCCCC(=O)Nc2cccc(S(=O)(=O)N3CCOCC3)c2)cc1,56
16,Cc1cccc(NS(=O)(=O)Cc2ccccc2)c1C,35.6
17,COc1ccc2c(c1OC)C(=O)N(c1ccc(C)cc1)C2,3.2
18,COC(=O)/C(C#N)=C/c1c[nH]c2ccccc12,7.1
19,O=C(OCC(=O)N1CCCCC1)c1cc(S(=O)(=O)N2CCOCC2)c(Cl)cc1Cl,67.7
20,CC(NC(=S)Nc1ccccc1)C(c1cccs1)N1CCOCC1 (configuration not stated),3.1
21,CC(=O)c1c(N2CCOCC2)nc2ccc(Cl)cc2c1-c1ccccc1,1.8
22,CC1=C([N+](=O)[O-])C(c2ccc(O)c(O)c2)NC(=O)N1 (configuration not stated),> 39.8
23,C[C@]12C=CC(=O)C=C1CC[C@@H]1C2=CC[C@]2(C)[C@@H](C(=O)CN3CCN(c4cc(N5CCCC5)nc(N5CCCC5)n4)CC3)CC[C@@H]12.O=C(O)/C=C\C(=O)O,48.2
24,COc1ccccc1C1=NC(c2ccccc2)CN1c1ccccc1 (configuration not stated),0.6

row,SMILES,solubility kinetic [µg/mL]
1,CCOc1ccc2nc(SCC(=O)NCc3ccccc3)[nH]c2c1,44.3
2,COc1ccc(-c2noc(CCCC(=O)N3CCOCC3)n2)cc1,49.6
3,CCNC(=S)NC(=NCc1cccnc1)Nc1nc(C)cc(C)n1,46.7
4,COCCCNC(=S)Nc1ccc(N2CCCCC2)cc1,> 46.1
5,CCOC(=O)N1CCN(C(=O)C(C)c2ccc([N+](=O)[O-])cc2)CC1 (configuration not stated),> 50.3
6,O=C(COc1cc(Cl)ccc1Cl)Nc1ccc2[nH]c(=O)[nH]c2c1,2.7
7,CC(CCc1ccccc1)NC(=O)Cc1ccc(Br)cc1 (configuration not stated),2.5
8,COc1ccc(NC(=S)N2CCCCCC2)cc1OC,42.4
9,CC(C)(C)c1ccc(N=C2SCC(=O)N2Cc2cccs2)cc1,0.4
10,COc1ccc(C(=O)NCCN2CCCC2)cc1[N+](=O)[O-],> 44
11,CC(C)(C)NC(=O)CN(Cc1ccccc1)S(=O)(=O)c1ccccc1,38.7
12,CC(NC(=O)c1cc2ccccc2o1)c1ccccc1 (configuration not stated),37.6
13,Cc1nccn1CC(=O)N/N=C/c1ccccc1O,> 38.7
14,Cc1cc(C)c(NC(=O)C(=O)NCc2ccco2)c(C)c1,4.1
15,CCOc1ccccc1NC(=O)Cn1c(=O)sc2ccccc21,1.2
16,Cc1cc(=O)oc2cc(NC(=O)c3ccccc3Cl)ccc12,8
17,COc1ccc(C2C(C#N)=C(N)Oc3cc(N)ccc32)cc1 (configuration not stated),27.4
18,CCCNC(=O)COC(=O)/C=C/c1ccc(C)o1,> 37.7
19,Cc1ccc(NS(=O)(=O)c2cccc(C(=O)Nc3cccnc3)c2)c(C)c1,6
20,CCCNC(=O)COCc1cc(-c2ccc3c(c2)OCO3)on1,> 47.7
21,O=C(Nc1ccccc1N1CCCC1)c1ccccc1F,19.8
22,O=C(Nc1nc2c(F)c(F)c(F)cc2s1)c1ccco1,< 0.3
23,O=C(NCCc1ccccc1)c1cc2ccccc2oc1=O,< 0.6
24,Cc1onc(-c2ccccc2Cl)c1C(=O)N1CCC(C)CC1,> 47.8

row,SMILES,solubility kinetic [µg/mL]
1,CCCCCc1c(C)[nH]c2nc3ccccc3n2c1=O,0.3
2,O=S(=O)(Nc1cccc2cccnc12)c1ccccc1,3.9
3,O=C(CSc1ncccn1)NCc1cccs1,> 39.8
4,O=[N+]([O-])c1ccc(Oc2ccc(S(=O)(=O)N3CCOCC3)cc2)cc1,18.1
5,C=CCSc1ncccc1C(=O)NCCc1ccccc1,29.3
6,O=C(c1cccc(S(=O)(=O)NCc2ccccc2)c1)N1CCCC1,> 51.7
7,CCC(=O)N1CCN(c2ccc(NC(=O)c3ccc4ccccc4c3)cc2)CC1,< 0.3
8,Cl.c1ccc(SCCOCCN2CCOCC2)cc1,43.4
9,CN(C)c1nc(-c2ccccc2)c2cc(Cl)ccc2n1,1
10,Cc1ccc(NC(=S)N2CCN(S(C)(=O)=O)CC2)cc1C,9.1
11,COc1cccc(NC(=O)CN(C)C(=O)C2CC3C=CC2C3)c1 (configuration not stated),> 47.2
12,CCN1CCN(c2ccc(S(=O)(=O)N3CCOCC3)cc2NC(=O)c2cccc([N+](=O)[O-])c2)CC1,> 75.5
13,CC(C)c1nc2sc3c(c2c(=O)[nH]1)CC(C)(C)OC3,6.4
14,CC(=NCCN1CCCCC1)c1c(O)n(-c2ccccc2)c(=O)[nH]c1=O,> 53.5
15,CCOC(=O)Cn1cc(C#N)c2ccccc21,> 34.2
16,COC(=O)C1=C(C)N(C)C(=O)NC1c1ccc(O)c(Cl)c1 (configuration not stated),> 46.6
17,Cc1cccc(C(=O)OCC(=O)N2CCCCCC2)c1C,> 43.4
18,COc1cc(SC)ccc1C(=O)NCCc1c[nH]c2ccccc12,6.1
19,CCC(CC)C(=O)c1c[nH]c(C(=O)NCCOC)c1,> 40
20,ClCC1=Nc2ccccc2Cc2ccccc21,4.8
21,CN(Cc1ccccc1)C(=O)Nc1ccc(Cl)cc1,38.5
22,CSc1ccccc1C(=O)OCC(=O)N1CCCC1=O,> 44
23,COc1ccc(C)cc1NC(=O)CN1CCCC1c1ccc2c(c1)OCCCO2 (configuration not stated),13.6
24,O=C(CCCc1nc(-c2ccccc2)no1)NC1CCCCC1,13.7

row,SMILES,solubility kinetic [µg/mL]
1,O=[N+]([O-])c1ccc(N2CCN(c3ccccc3O)CC2)cc1,0.5
2,CC1(C)C(c2cccs2)=[N+]([O-])C2(CCCCC2=O)N1O (configuration not stated),41.4
3,Cc1cccc(NC(=O)COc2cccc3c2CCN(C)C3=O)c1,41.9
4,COc1ccc(OC)c(C(C)NC(=O)C(C)Cc2ccccc2)c1 (configuration not stated),45.7
5,O=C(Nc1ccccc1)NC1(C(=O)N2CCC(O)CC2)CCCCC1,> 51.8
6,Cc1ccc(Cc2cnc(NC(=O)C3=NCCN3)s2)cc1,11.5
7,Cc1ccc2nc3c(c(Nc4ccccc4)c2c1)CCC3.Cl,35
8,COc1ccc(C(=O)O)cc1S(=O)(=O)Nc1ccc(N2CCCCC2)cc1,54.7
9,NC1=NC(=O)/C(=C/c2ccc(OCC(=O)O)cc2)S1,> 41.7
10,CCCCNC(=O)C1(NC(=O)Nc2ccccc2)CCCCC1,5.5
11,O=C(NCCNS(=O)(=O)c1ccccc1)c1ccc([N+](=O)[O-])cc1,51.1
12,Cc1nn(C)c(Cl)c1CN1CCN(C2CCCC2)C(CCO)C1 (configuration not stated),> 51.1
13,CC(=O)Nc1ccc(S(=O)(=O)NCCC(=O)OCC(=O)NCc2ccccc2)cc1,> 65
14,Cc1ccc(CN2C(=O)C(C)Oc3ccccc32)cc1 (configuration not stated),4.7
15,Cc1nc(SCC(=O)N2CCOCC2)c2c3c(sc2n1)CCC3,32.8
16,CC(=O)Nc1ccc(-c2nc3cc(Cl)ccc3o2)cc1,< 0.3
17,O=S(=O)(NCC1COc2ccccc2O1)c1ccccc1F (configuration not stated),> 48.5
18,COc1ccc(/C=N/NC(=O)c2cccnc2)c(C(=O)O)c1OC,> 49.4
19,CCC(=NCc1ccco1)c1c(O)n(C)c(=O)n(C)c1=O,> 43.7
20,Nc1ccc(N2CCCCC2)c2nonc12,> 32.7
21,O=[N+]([O-])c1ccc(Cl)c(C[n+]2cccc3ccccc32)c1.[Br-],56.9
